Results on nine compounds are retold here after US20260365642A1, “ANTIPARASITIC COMPOUNDS” (Animol Discovery, Inc., priority 2023, published 2026).

Bounds are passed on as bounds.

The assay deals with Dirofilaria immitis L1 larvae. In words: Screening against microfilaria (L1 larvae) of Dirofilaria immitis, survival/motility. The settings on record: 72 h, read-out: Ranked D. immitis L1 MED Activity. The format is in vivo.
On to `CN(CC1CN(S(C)(=O)=O)CCCO1)c1cc(N2CCCC3(CCCCC3)C2)nc(C(F)(F)F)n1` (stereo not drawn) [Compound 35, N-methyl-N-((4-(methylsulfonyl)-1,4-oxazepan-2-yl)methyl)-6-(2-azaspiro[5.5]undecan-2-yl)-2-(trifluoromethyl)pyrimidin-4-amine], for which the minimal effective concentration was under 10000 µM. The same measure for `CN(CC1CN(S(C)(=O)=O)CCO1)c1cc(N2CCCC3(CCC(F)(F)CC3)C2)nc(C(F)(F)F)n1` (stereo not drawn) [Compound 40, 6-(9,9-difluoro-2-azaspiro[5.5]undecan-2-yl)-N-methyl-N-((4-(methylsulfonyl)morpholin-2-yl)methyl)-2-(trifluoromethyl)pyrimidin-4-amine]: under 30000 µM. The value for `CN(CC1CN(S(C)(=O)=O)CCS1)c1cc(N2CCSC3(CCCCC3)C2)nc(C(F)(F)F)n1` (stereo not drawn) [Compound 30, N-methyl-N-((4-(methylsulfonyl)thiomorpholin-2-yl)methyl)-6-(1-thia-4-azaspiro[5.5]undecan-4-yl)-2-(trifluoromethyl)pyrimidin-4-amine] was under 10000 µM; that for `CN(CC1CN(S(C)(=O)=O)CCO1)c1cc(N2CC3CC(C2)O3)nc(C(F)(F)F)n1` (stereo not drawn) [Compound 18, 6-(6-oxa-3-azabicyclo[3.1.1]heptan-3-yl)-N-methyl-N-((4-(methylsulfonyl)morpholin-2-yl)methyl)-2-(trifluoromethyl)pyrimidin-4-amine] was over 100000 µM; that for `CN(c1cc(N2CCCC3(CCCCC3)C2)nc(C(F)(F)F)n1)C1CC2(CC(NS(C)(=O)=O)C2)C1` (stereo not drawn) [Compound 7, N-(6-((6-(2-azaspiro[5.5]undecan-2-yl)-2-(trifluoromethyl)pyrimidin-4-yl)(methyl)amino)spiro[3.3]heptan-2-yl)methanesulfonamide] was over 100000 µM. On to `CN(CC1CN(S(C)(=O)=O)CCC1(F)F)c1cc(N2CCC(F)(F)C3(CCCCC3)C2)nc(C(F)(F)F)n1` (stereo not drawn) [Compound 22, N-((4,4-difluoro-1-(methylsulfonyl)piperidin-3-yl)methyl)-6-(5,5-difluoro-2-azaspiro[5.5]undecan-2-yl)-N-methyl-2-(trifluoromethyl)pyrimidin-4-amine], for which the minimal effective concentration was over 100000 µM. In the case of `CN(CC1CN(S(C)(=O)=O)C1)c1cc(N2CCCC3(CCCCC3)C2)nc(C(F)(F)F)n1` [Compound 13, N-methyl-N-((1-(methylsulfonyl)azetidin-3-yl)methyl)-6-(2-azaspiro[5.5]undecan-2-yl)-2-(trifluoromethyl)pyrimidin-4-amine], the minimal effective concentration is under 10000 µM. As to `CN(CC1CN(S(C)(=O)=O)CCO1)c1cc(N2CCC(F)(F)C3(CCCCC3)C2)nc(C(F)(F)F)n1` (stereo not drawn) [Compound 23, 6-(5,5-difluoro-2-azaspiro[5.5]undecan-2-yl)-N-methyl-N-((4-(methylsulfonyl)morpholin-2-yl)methyl)-2-(trifluoromethyl)pyrimidin-4-amine], the minimal effective concentration was under 10000 µM. The value for `CN(CC1CN(S(C)(=O)=O)CCO1)c1cc(N2CCS(=O)(=O)C3(CCCCC3)C2)nc(C(F)(F)F)n1` (stereo not drawn) [Compound 27, 4-(6-(methyl((4-(methylsulfonyl)morpholin-2-yl)methyl)amino)-2-(trifluoromethyl)pyrimidin-4-yl)-1-thia-4-azaspiro[5.5]undecane 1,1-dioxide] was under 30000 µM.
